The test system of test [1] is 22RV1. Description: Cell viability, MTT assay, 22RV1. It is filed as cell-based. The conditions noted are these: Homo sapiens, 22RV1 (Prostate), 96 hr. How it is done:
(§1) To measure cell viability, cell titer glow (CTG, Promega CellTiter-Glo 2.0 Assay) and MTT assays (SigmaAldrich, Cell Proliferation Kit I) were performed. Briefly, cells were serum starved overnight prior to seeding in 96-well plates. Following 24 h incubation, cells were treated with increasing concentrations of JGJ compounds for 96 hr. At assay read-out, CellTiter-Glo reagent was added and luminescence was measured after 10-minutes incubation at room temperature. For the MTT assay, MTT labeling reagent was added and incubated for 4 h. Subsequently, medium was removed and 50 μL DMSO was added to solubilize the crystals, and absorbance was measured at 570 nm. Cell viability was calculated as (Sample-Background)/(Control-Background).
For orientation: Tetrazolium assays rely on reduction of a dye to a coloured formazan, in cell work by metabolically active cells.

Test [2] concerns 22RV1. The experiment in a line: Cell viability, CellTiter-Glo (CTG), 22RV1. It is filed as cell-based. The conditions noted are these: Homo sapiens, 22RV1 (Prostate), 96 hr. How it is done: as §1
For orientation: In ATP-based viability assays light output follows the ATP content of the culture.

The next test concerns LNCaP. The experiment in a line: Cell viability, MTT assay, LNCaP. The format is cell-based. The conditions noted are these: Homo sapiens, LNCaP (Prostate). The method, then: as §1
The next test has as its system DU145. Description: Cell viability, MTT assay, DU145. The format is cell-based. The settings on record: Homo sapiens, DU-145, DU145 (Prostate). How it is done:
as §1, with “(Sample-Background)/(Control-Background). Current standard of care drugs, Enzalutamide, Palbociclib and Cetuximab were used as comparative controls.” for “(Sample-Background)/(Control-Background).”

Another test relates to H1975. Description: Cell viability, MTT assay, H1975. The conditions noted are these: Homo sapiens, NCI-H1975, H1975 (Lung). The format is cell-based. The method, then:
as §1

A further test concerns H1568. The experiment in a line: Cell viability, MTT assay, H1568. The format is cell-based. The settings on record: NCI-H1568, H1568 (Lung). The method, then:
as §1, with “(Sample-Background)/(Control-Background). Current standard of care drugs, Enzalutamide, Palbociclib and Cetuximab were used as comparative controls.” for “(Sample-Background)/(Control-Background).”

Another test concerns A549. The experiment in a line: Cell viability, MTT assay, A549. The format is cell-based. The settings on record: Homo sapiens, A549 (Lung). How it is done:
as §1

The subject of the next test is H23. Description: Cell viability, MTT assay, H23. The format is cell-based. The conditions noted are these: Homo sapiens, NCI-H23, H23 (Lung). How it is done:
as §1, with “(Sample-Background)/(Control-Background). Current standard of care drugs, Enzalutamide, Palbociclib and Cetuximab were used as comparative controls.” for “(Sample-Background)/(Control-Background).”

For the next test, the system named is H460. Description: Cell viability, MTT assay, H460. The conditions noted are these: Homo sapiens, NCI-H460, H460 (Lung). The format is cell-based. The method, then:
as §1, with “(Sample-Background)/(Control-Background). Current standard of care drugs, Enzalutamide, Palbociclib and Cetuximab were used as comparative controls.” for “(Sample-Background)/(Control-Background).”

Another test relates to BT-549. Description: Cell viability, MTT assay, BT-549. It is filed as cell-based. The settings on record: Homo sapiens, BT-549 (Breast). The method, then: as §1, with “(Sample-Background)/(Control-Background). Current standard of care drugs, Enzalutamide, Palbociclib and Cetuximab were used as comparative controls.” for “(Sample-Background)/(Control-Background).”
The test system of test [3] is MDA-MB231. The experiment in a line: Cell viability, MTT assay, MDA-MB231. It is filed as cell-based. The settings on record: Homo sapiens, MDA-MB-231, MDA-MB231 (Breast). The method, then: as §1, with “(Sample-Background)/(Control-Background). Current standard of care drugs, Enzalutamide, Palbociclib and Cetuximab were used as comparative controls.” for “(Sample-Background)/(Control-Background).”

The subject of test [4] is MDA-MB231. Description: Cell viability, CTG, MDA-MB231. The format is cell-based. The settings on record: Homo sapiens, MDA-MB-231, MDA-MB231 (Breast). The method, then:
as §1, with “(Sample-Background)/(Control-Background). Current standard of care drugs, Enzalutamide, Palbociclib and Cetuximab were used as comparative controls.” for “(Sample-Background)/(Control-Background).”

Another test concerns MCF7. Description: Cell viability, MTT assay, MCF7. The format is cell-based. The conditions noted are these: Homo sapiens, MCF7 (Breast). The method, then:
as §1, with “(Sample-Background)/(Control-Background). Current standard of care drugs, Enzalutamide, Palbociclib and Cetuximab were used as comparative controls.” for “(Sample-Background)/(Control-Background).”

In a further test the test system is HCT-116. Description: Cell viability, CTG, HCT-116. It is filed as cell-based. The settings on record: Homo sapiens, HCT-116 (Colon). The method, then: as §1, with “(Sample-Background)/(Control-Background). Current standard of care drugs, Enzalutamide, Palbociclib and Cetuximab were used as comparative controls.” for “(Sample-Background)/(Control-Background).”
The test system of test [5] is SW620. Description: Cell viability, CTG, SW620. The format is cell-based. The conditions noted are these: Homo sapiens, SW-620, SW620 (Colon). How it is done:
as §1, with “(Sample-Background)/(Control-Background). Current standard of care drugs, Enzalutamide, Palbociclib and Cetuximab were used as comparative controls.” for “(Sample-Background)/(Control-Background).”

A further test has as its system SW948. Description: Cell viability, CTG, SW948. The format is cell-based. The settings on record: Homo sapiens, SW948 (Colon). How it is done: as §1, with “(Sample-Background)/(Control-Background). Current standard of care drugs, Enzalutamide, Palbociclib and Cetuximab were used as comparative controls.” for “(Sample-Background)/(Control-Background).”
Test [6] has as its target T1, LIN28B/pre-let-7a-2 binding (Homo sapiens, UniProt Q6ZN17).
T1 construct: made in house; host or cells: stably transduced HEK cells; used as diluted protein lysate, not purified
T1 sequence (Q6ZN17 1-250): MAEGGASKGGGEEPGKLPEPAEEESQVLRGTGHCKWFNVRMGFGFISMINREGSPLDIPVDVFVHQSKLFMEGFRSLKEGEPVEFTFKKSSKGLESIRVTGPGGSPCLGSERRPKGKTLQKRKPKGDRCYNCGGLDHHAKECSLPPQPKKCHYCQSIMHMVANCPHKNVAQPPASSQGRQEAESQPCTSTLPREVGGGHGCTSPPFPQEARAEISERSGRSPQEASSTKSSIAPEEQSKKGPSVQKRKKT
The experiment in a line: FRET assay, EGFP-tagged LIN28B and BHQ-1 labelled pre-let-7a-2. The conditions noted are these: doses 1.25 uM-20 uM; compared with LN1632. How it is done: As described herein, compounds of formula (I) and (II) show Lin28/let-7 inhibitory activity in FRET assays in vitro and in LSCs and LSC-like Kasumi-1 cells. FRET assay was performed as previously described (51).
In order to improve binding and inhibitory capacity of a compound to LIN28b, we predicted the binding mode of LN1632 to LIN28B. […] With this model in hand, we synthesized novel compounds with improved binding capacity to Lin28b (JGJ002-JGJ008, FIG. 8). Compounds were screened using a previously described FRET-assay with an EGFP-tagged LIN28B as donor and a BHQ-1 quencher labelled pre-let-7a-2 (pre-let-7a-2-BHQ1) as acceptor (51). Briefly, recombinant LIN28B-EGFP was harvested from stably transduced HEK cells and diluted with binding buffer (300 mM NaCl, 25 mM HEPES pH 7.2, 10 μM ZnCl2, 1% Odyssey Blocking Buffer, 0.05% Tween 20, 0.5 mM TCEP) in order to adjust ideal FRET-quenching signal intensity. Protein lysate and compounds (JGJ001-JGJ008) were pre-incubated in doses ranging from 1.25 uM-20 uM for 20 min in 100 uL diluted protein lysate. Subsequently pre-let-7a-2-BHQ1 was added to the mixture (at 6.25 nM) and EGFP-LIN28B donor emission was measured using a Tecan Spark Plate Reader ([…], excitation at 488 nm, emission read-out at […], 30 flashes/s). […] Increased endogenous let-7 miRNA levels can target a panoply of LCS and cancer stem cell hallmark genes thus inhibiting tumor growth.
(§2) To test the structure-activity relationship, 39 LN1632-related analogs (JGJ001-39) were synthesized and their potency and specificity to inhibit LIN28B-RNA binding activity and upregulate mature let-7 miRNA levels was measured. […] The dual luciferase reporter assay was performed as previously described (89).

In a further test the test system is mature let-7 miRNAs. Description: Dual luciferase reporter assay of mature let-7 miRNAs in HepG2 cells. The format is cell-based. The conditions noted are these: 3-10 μM, compared with LN1632. The method, then: as §2
A further test relates to 22Rv1 cells. The experiment in a line: 22Rv1 cell counting. It is filed as cell-based. The settings on record: 2 μM JGJ023 vs 42 μM Enzalutamide, day +5, +7, +9. How it is done:
(§3) To test whether LN1632 and novel analogs thereof affect cancer cell growth, cell viability and cell counting assays in TNBC (FIG. 14B-D), castration resistant prostate cancer cells (CRPC, FIG. 15A-C) and colorectal cancer cells (CRC, FIG. 15A-C) were performed.

Test [7] concerns SW620. Description: Cell viability, MTT assay, SW620. It is filed as cell-based. The settings on record: Homo sapiens, SW-620, SW620 (Colon). The method, then: as §1, with “(Sample-Background)/(Control-Background). Current standard of care drugs, Enzalutamide, Palbociclib and Cetuximab were used as comparative controls.” for “(Sample-Background)/(Control-Background).”
Test [8] deals with SW480. The experiment in a line: Cell viability, MTT assay, SW480. It is filed as cell-based. The settings on record: Homo sapiens, SW480 (Colon). The method, then: as §1, with “(Sample-Background)/(Control-Background). Current standard of care drugs, Enzalutamide, Palbociclib and Cetuximab were used as comparative controls.” for “(Sample-Background)/(Control-Background).”
The subject of test [9] is SW480. The experiment in a line: Cell viability, CTG, SW480. The format is cell-based. The conditions noted are these: Homo sapiens, SW480 (Colon). The method, then: as §1
The test system of the next test is MYC-driven cancers. Description: Cell viability and cell counting assays in cancer cells. The format is cell-based. The conditions noted are these: TNBC, CRPC, lung and colorectal adenocarcinoma cells. How it is done:
as §3
as §1, with “(Sample-Background)/(Control-Background). Current standard of care drugs, Enzalutamide, Palbociclib and Cetuximab were used as comparative controls.” for “(Sample-Background)/(Control-Background).”

On to `CC(=O)Nc1cccc(-c2ccc3ncc(-c4ccccc4)n3n2)c1` [JGJ023, N-(3-(3-Phenylimidazo[1,2-b]pyridazin-6-yl)phenyl)acetamide], for which the IC50 (as a rule, the point on the concentration scale where inhibition reaches its midpoint) worked out at 2 µM in the test on 22RV1 [1]; 8 µM in the test on 22RV1 [2]; 6 µM in the test on LNCaP; 3 µM in the test with DU145; 8 µM in the test with H1975; 12 µM in the test on H1568. For the same compound, the 50% inhibitory concentration (IC50) in the test with A549 is 20 µM; in the test on H23, 94 µM; in the test with H460, 124 µM; in the test on BT-549, 7 µM; with MDA-MB231 [3], 61 µM; in the test with MDA-MB231 [4] it was 17 µM. Also, the IC50 worked out at 38 µM with MCF7, 215 µM in the test on HCT-116, 27 µM in the test on SW620 [5] and 51 µM with SW948. Besides, the “Inhibition of LIN28B binding to pre-let-7a (FRET signal)” value in test [6] was “inhibit LIN28's RNA-binding capacity significantly more than compound LN1632”. In addition, in the test with mature let-7 miRNAs, the “Upregulation of mature let-7 miRNAs” value was “upregulated mature let-7 miRNAs at significantly lower doses than LN1632”. For the same compound, the “Apoptosis and cell numbers” value in the test on 22Rv1 cells is “induces apoptosis and reduces cell numbers of mCRPC compared to Enzalutamide”.
Consider `CC(=O)Nc1cccc(-c2ccc3[nH]cc(-c4ccccc4)c3n2)c1` [JGJ034, N-(3-(3-Phenyl-1H-pyrrolo[3,2-b]pyridin-5-yl)phenyl)acetamide], for which the IC50 in the test with 22RV1 [1] was 1 µM; in the test with 22RV1 [2] it was 2 µM; in the test on LNCaP, 3 µM; with MDA-MB231 [4] it was 3 µM; in the test on HCT-116, 43 µM; in the test on SW620 [7], 2 µM. Also, the IC50 with SW620 [5] came out at 3 µM; in the test with SW480 [8], 33 µM; in the test with SW480 [9] it was 41 µM; in the test on SW948, 85 µM. Also, the “Inhibition of LIN28B binding to pre-let-7a (FRET signal)” value in test [6] was “inhibit LIN28's RNA-binding capacity significantly more than compound LN1632”. In addition, the “Upregulation of mature let-7 miRNAs” value in the test with mature let-7 miRNAs is listed as “upregulated mature let-7 miRNAs at significantly lower doses than LN1632”. In addition, the “Proliferation and apoptosis of cancer cells” value in the test with MYC-driven cancers was “reduced proliferation and induced apoptosis preferentially in MYC-driven cancers”.

Values taken from patent publication US20230059009A1, “INHIBITORS OF LIN28 AND METHODS OF USE THEREOF” (The Regents of the University of California, priority 2019, published 2023).
